# Experimental data taken from publication PMC10165273, “Itch receptor MRGPRX4 interacts with the receptor activity–modifying proteins” (The Journal of Biological Chemistry, 2023).
# Where two headings read alike, the source gives them in different places.
# Target: T1, MRGPRX4 (Homo sapiens, UniProt Q96LA9)
# T1 construct: expressed in transfected cells; host or cells: HEK293T
# Experiment: IP1 accumulation HTRF assay, MRGPRX4
# Type: cell-based
# Details: 2 h; for activation at 80 µM: log [agonist] (M) -4.09691; for activation at 16 µM: log [agonist] (M) -4.79588; for activation at 3.2 µM: log [agonist] (M) -5.49485; for activation at 0.64 µM: log [agonist] (M) -6.19382; for activation at 0.128 µM: log [agonist] (M) -6.89279; for activation at 0.0256 µM: log [agonist] (M) -7.59176
# Experimental: HEK293T cells were transfected with 1 pg/cell of MRGPRX4 DNA, and the amount of DNA was kept constant at 2 pg/cell with pcDNA3.1(+) empty vector, unless otherwise specified. Twenty four hours after transfection, IP1 assay was performed as previously described ([51]). When applicable, cells were treated with 1 μM YM254890 (YM) or different concentrations of U73122 for 1 h prior to addition of agonist or buffer. After incubation for 2 h, HTRF reagents and IP1 calibration standards were added and incubated for 2 h in the dark at room temperature. Time-resolved fluorescence signals were read on the BioTek Synergy NEO-TRF Hybrid multi-mode reader (BioTek Instruments). All data were carried out in three independent experiments with three technical replicate each.
# For characterization of the Tet-On Nluc-HT7-MRGPRX4-GFP10-1D4 construct, HEK293T cells were transfected as previously described with some modifications. Dox dose-response of NLuc-HT7-MRGPRX4-GFP10-1D4 DNA titration was assayed by transfecting HEK293T cells with either 1 or 2 pg/cell of NLuc-HT7-MRGPRX4-GFP10-1D4 construct. Receptor expression was induced 4 h after transfection with addition of different concentrations of dox for 20 h. For the RAMP DNA titration assay, cells were cotransfected with a constant amount of 1 pg/cell of NLuc-HT7-MRGPRX4-GFP10-1D4 DNA and 1, 0.75, 0.5, or 0 pg/cell of each HA-RAMP-OLLAS with the homogenous transfection method. Four hours after transfection, receptor expression was induced with addition of 1000 ng/ml dox. Twenty hours after induction, IP1 assay was performed.
# Data reduction, standard calibration, and transformation of HTRF data were performed as previously described ([51]). Normalized IP1 values were calculated relative to the unstimulated mock-transfected cells (set to 0%) and fully stimulated MRGPRX4 (alone if applicable) (set to 100%).
# [1] = SP-FLAG-Nluc-HT7-MRGX4_Tet-GFP10-1D4, read-out: normalized IP1 accumulation
# [2] = SP-FLAG-Nluc-HT7-MRGX4_Tet-GFP10-1D4 no dox, read-out: normalized IP1 accumulation
# T1 sequence (Q96LA9 whole entry): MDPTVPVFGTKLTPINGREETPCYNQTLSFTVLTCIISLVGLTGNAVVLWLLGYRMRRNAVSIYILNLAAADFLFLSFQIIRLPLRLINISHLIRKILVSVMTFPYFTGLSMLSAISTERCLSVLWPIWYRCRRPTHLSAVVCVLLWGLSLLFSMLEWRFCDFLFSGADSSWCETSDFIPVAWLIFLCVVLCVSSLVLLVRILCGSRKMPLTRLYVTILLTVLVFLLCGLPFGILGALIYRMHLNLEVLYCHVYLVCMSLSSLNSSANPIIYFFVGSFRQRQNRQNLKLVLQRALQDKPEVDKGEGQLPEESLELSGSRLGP
smiles,measurement,setting,value
"C[C@H](CCC(=O)O)[C@H]1CC[C@H]2[C@@H]3CC[C@@H]4C[C@H](O)CC[C@]4(C)[C@H]3C[C@H](O)[C@]12C [DCA, deoxycholic acid]",activation at 100 µM,"HA-MRGX4-1D4, log [agonist] (M) -4, read-out: normalized IP1 accumulation",53.9%
same,activation at 20 µM,"HA-MRGX4-1D4, log [agonist] (M) -4.69897, read-out: normalized IP1 accumulation",34.3%
same,activation at 4 µM,"HA-MRGX4-1D4, log [agonist] (M) -5.39794, read-out: normalized IP1 accumulation",19.4%
same,activation at 0.8 µM,"HA-MRGX4-1D4, log [agonist] (M) -6.09691, read-out: normalized IP1 accumulation",12.4%
same,activation at […],"HA-MRGX4-1D4, log [agonist] (M) -6.79588, read-out: normalized IP1 accumulation",11.1%
same,activation at 0.032 µM,"HA-MRGX4-1D4, log [agonist] (M) -7.49485, read-out: normalized IP1 accumulation",11.4%
same,activation at 100 µM,"MRGPRX4: 0.25pg/cell, log [DCA] (M) -4, Fig S1c, read-out: IP1 accumulation",41.7%
same,activation at 20 µM,"MRGPRX4: 0.25pg/cell, log [DCA] (M) -4.69897, Fig S1c, read-out: IP1 accumulation",28.7%
same,activation at 4 µM,"MRGPRX4: 0.25pg/cell, log [DCA] (M) -5.39794, Fig S1c, read-out: IP1 accumulation",10.1%
same,activation at 100 µM,"MRGPRX4: 0.5pg/cell, log [DCA] (M) -4, Fig S1c, read-out: IP1 accumulation",53.6%
same,activation at 20 µM,"MRGPRX4: 0.5pg/cell, log [DCA] (M) -4.69897, Fig S1c, read-out: IP1 accumulation",33.8%
same,activation at 4 µM,"MRGPRX4: 0.5pg/cell, log [DCA] (M) -5.39794, Fig S1c, read-out: IP1 accumulation",14.2%
same,activation at 0.8 µM,"MRGPRX4: 0.5pg/cell, log [DCA] (M) -6.09691, Fig S1c, read-out: IP1 accumulation",7.76%
same,activation at […],"MRGPRX4: 0.5pg/cell, log [DCA] (M) -6.79588, Fig S1c, read-out: IP1 accumulation",7.83%
same,activation at 0.032 µM,"MRGPRX4: 0.5pg/cell, log [DCA] (M) -7.49485, Fig S1c, read-out: IP1 accumulation",6.46%
same,activation at 100 µM,"MRGPRX4: 1pg/cell, log [DCA] (M) -4, Fig S1c, read-out: IP1 accumulation",62.8%
same,activation at 20 µM,"MRGPRX4: 1pg/cell, log [DCA] (M) -4.69897, Fig S1c, read-out: IP1 accumulation",42.9%
same,activation at 4 µM,"MRGPRX4: 1pg/cell, log [DCA] (M) -5.39794, Fig S1c, read-out: IP1 accumulation",19.8%
same,activation at 0.8 µM,"MRGPRX4: 1pg/cell, log [DCA] (M) -6.09691, Fig S1c, read-out: IP1 accumulation",13.1%
same,activation at […],"MRGPRX4: 1pg/cell, log [DCA] (M) -6.79588, Fig S1c, read-out: IP1 accumulation",10.7%
same,activation at 0.032 µM,"MRGPRX4: 1pg/cell, log [DCA] (M) -7.49485, Fig S1c, read-out: IP1 accumulation",8.32%
same,activation at 100 µM,"MRGPRX4: 2pg/cell, log [DCA] (M) -4, Fig S1c, read-out: IP1 accumulation",79.9%
same,activation at 20 µM,"MRGPRX4: 2pg/cell, log [DCA] (M) -4.69897, Fig S1c, read-out: IP1 accumulation",51.7%
same,activation at 4 µM,"MRGPRX4: 2pg/cell, log [DCA] (M) -5.39794, Fig S1c, read-out: IP1 accumulation",26.6%
same,activation at 0.8 µM,"MRGPRX4: 2pg/cell, log [DCA] (M) -6.09691, Fig S1c, read-out: IP1 accumulation",15.7%
same,activation at […],"MRGPRX4: 2pg/cell, log [DCA] (M) -6.79588, Fig S1c, read-out: IP1 accumulation",15.1%
same,activation at 0.032 µM,"MRGPRX4: 2pg/cell, log [DCA] (M) -7.49485, Fig S1c, read-out: IP1 accumulation",14.6%
same,activation at 100 µM,"MRGPRX4: […], log [DCA] (M) -4, Fig S1c, read-out: IP1 accumulation",38.8%
same,activation at 20 µM,"MRGPRX4: […], log [DCA] (M) -4.69897, Fig S1c, read-out: IP1 accumulation",21.2%
same,activation at 4 µM,"MRGPRX4: […], log [DCA] (M) -5.39794, Fig S1c, read-out: IP1 accumulation",7.81%
same,activation at 0.8 µM,"MRGPRX4: […], log [DCA] (M) -6.09691, Fig S1c, read-out: IP1 accumulation",3.51%
same,activation at 0.032 µM,"MRGPRX4: […], log [DCA] (M) -7.49485, Fig S1c, read-out: IP1 accumulation",3.48%
same,activation at 10 µM,"MRGPRX4, DCA 10uM, Fig S1d",28.4%
same,activation at 100 µM,"MRGPRX4, DCA 100uM, Fig S1d, read-out: IP1 accumulation",60.7%
same,activation at 100 µM,"MRGPRX4 alone, log [DCA] (M) -4, Fig S3d-f, read-out: IP1 accumulation",100%
same,activation at 20 µM,"MRGPRX4 alone, log [DCA] (M) -4.69897, Fig S3d-f, read-out: IP1 accumulation",66.8%
same,activation at 4 µM,"MRGPRX4 alone, log [DCA] (M) -5.39794, Fig S3d-f, read-out: IP1 accumulation",36.1%
same,activation at 0.8 µM,"MRGPRX4 alone, log [DCA] (M) -6.09691, Fig S3d-f, read-out: IP1 accumulation",26.3%
same,activation at […],"MRGPRX4 alone, log [DCA] (M) -6.79588, Fig S3d-f, read-out: IP1 accumulation",23.7%
same,activation at 0.032 µM,"MRGPRX4 alone, log [DCA] (M) -7.49485, Fig S3d-f, read-out: IP1 accumulation",21.4%
same,activation at 30 µM,"MRGX4 + DCA, U73122 30uM, Fig S1e",8.48%
same,activation at 30 µM,"MRGX4 + DCA, buffer, Fig S1e",39.2%
same,activation at 100 µM,"MRGX4 + DCA, 100uM, U73122 30uM, Fig S1e, read-out: IP1 accumulation",16.7%
same,activation at 100 µM,"MRGX4 + DCA, 100uM, buffer, Fig S1e, read-out: IP1 accumulation",56.2%
same,activation at 80 µM,[1],38.3%
same,activation at 16 µM,[1],22.2%
same,activation at 3.2 µM,[1],13%
same,activation at 0.64 µM,[1],10.2%
same,activation at 0.128 µM,[1],9.26%
same,activation at 0.0256 µM,[1],9.64%
same,activation at 80 µM,[2],9.13%
same,activation at 16 µM,[2],7.51%
same,activation at 3.2 µM,[2],9.25%
same,activation at 0.64 µM,[2],7.7%
same,activation at 0.128 µM,[2],7.77%
same,activation at 0.0256 µM,[2],7.55%
same,activation at 100 µM,"SP-Flag-MRGX4-1D4, log [agonist] (M) -4, read-out: normalized IP1 accumulation",65.9%
same,activation at 20 µM,"SP-Flag-MRGX4-1D4, log [agonist] (M) -4.69897, read-out: normalized IP1 accumulation",34.9%
same,activation at 0.8 µM,"SP-Flag-MRGX4-1D4, log [agonist] (M) -6.09691, read-out: normalized IP1 accumulation",9.9%
same,activation at […],"SP-Flag-MRGX4-1D4, log [agonist] (M) -6.79588, read-out: normalized IP1 accumulation",8.52%
same,activation at 0.032 µM,"SP-Flag-MRGX4-1D4, log [agonist] (M) -7.49485, read-out: normalized IP1 accumulation",6.84%
same,activation at 100 µM,"SP-Flag-MRGX4-GFP10-1D4, log [agonist] (M) -4, read-out: normalized IP1 accumulation",66.1%
same,activation at 20 µM,"SP-Flag-MRGX4-GFP10-1D4, log [agonist] (M) -4.69897, read-out: normalized IP1 accumulation",33.2%
same,activation at 4 µM,"SP-Flag-MRGX4-GFP10-1D4, log [agonist] (M) -5.39794, read-out: normalized IP1 accumulation",15.5%
same,activation at 0.8 µM,"SP-Flag-MRGX4-GFP10-1D4, log [agonist] (M) -6.09691, read-out: normalized IP1 accumulation",8.34%
same,activation at […],"SP-Flag-MRGX4-GFP10-1D4, log [agonist] (M) -6.79588, read-out: normalized IP1 accumulation",7.34%
same,activation at 0.032 µM,"SP-Flag-MRGX4-GFP10-1D4, log [agonist] (M) -7.49485, read-out: normalized IP1 accumulation",7.17%
same,activation at 100 µM,"log [agonist] (M) -4, MRGX4-transfected, individual replicates, read-out: IP1 accumulation, dose-response (Figure 1a)",67.6%
same,activation at 11.111 µM,"log [agonist] (M) -4.95424, MRGX4-transfected, individual replicates, read-out: IP1 accumulation, dose-response (Figure 1a)",33.9%
same,activation at 1.2346 µM,"log [agonist] (M) -5.90849, MRGX4-transfected, individual replicates, read-out: IP1 accumulation, dose-response (Figure 1a)",14.9%
same,activation at 0.13717 µM,"log [agonist] (M) -6.86273, MRGX4-transfected, individual replicates, read-out: IP1 accumulation, dose-response (Figure 1a)",10.6%
